Reference: patent US20110129868A1, “CELL CAPABLE OF REPLICATING NOVEL HCV REPLICON, CELL CAPABLE OF REPLICATING FULL-LENGTH HCV RNA, AND USE OF THOSE CELLS” (priority 2008, published 2011)
Read-outs that look alike come from different tables or passages of the source.

B1: IFN-γ: interferon gamma (Sigma), pharmaceutical agent having an anti-HCV action (protein, UniProt P01579 24-161, looked up)
Interferon gamma: QDPYVKEAENLKKYFNAGHSDVADNGTLFLGILKNWKEESDRKIMQSQIVSFYFKLFKNFKDDQSIQKSVETIKEDMNVKFFNSNKKKRDDFEKLTNYSVTDLNVQRKAIHELIQVMAELSPAAKTGKRKRSQMLFRG

How the values were obtained:
[1] = tested on: full-length HCV RNA replication in ORL11 cells; test: microbe, parasite or virus in culture; type: cell-based, HCV-O strain (genotype 1b); settings: for luciferase activity after treatment (single agent or combined use): drug concentrations based on the EC50 values
Method: (§1) Renilla luciferase was quantified by collecting cells using a Renilla Luciferase Assay System (Promega) according to the manufacturer's experiment protocol.
(§2) Luciferase activity of each cell line was then measured at hour 24, 48, and 72. […] SD values were calculated based on the results from three samples at each point. […]

[2] = tested on: full-length HCV RNA replication in ORL8 cells; test: microbe, parasite or virus in culture; type: cell-based, HCV-O strain (genotype 1b); settings: for EC50: Hepatitis C virus; for luciferase activity after treatment (single agent or combined use): drug concentrations based on the EC50 values
Method: as §1, §2

[3] = tested on: full-length HCV RNA replication in OR6 cells; test: microbe, parasite or virus in culture; type: cell-based, HCV-O strain (genotype 1b); settings: for luciferase activity after treatment (single agent or combined use): drug concentrations based on the EC50 values
From the text: as §1
An OR6-cell assay system was used as a control.

ORL8 cells = test: cell count by trypan blue staining, ORL8 cells; type: cell-based, human; settings: drug at the concentration corresponding to the EC50 value
ORL11 cells = test: cell count by trypan blue staining, ORL11 cells; type: cell-based, human
OR6 cells = test: cell count by trypan blue staining, OR6 cells; type: cell-based, human; settings: drug at the concentration corresponding to the EC50 value
[4] = tested on: HCV replicon of Con1 strain; settings: cited from earlier work
[5] = Hepatitis C virus, 72 h, luciferase activity after 72 hours, read-out: EC50
[6] = ORL8 cells, luciferase activity after 72 hours, read-out: EC50
[7] = Hepatitis C virus, OR6 cells, luciferase activity after 72 hours, read-out: EC50
[8] = ORL11 cells, drug at the concentration corresponding to the EC50 value, trypan blue

Molecule	EC50 [1, 5] [µM]	EC50 [2, 6] [µM]	EC50 [3, 7] [µM]	cell count over the control cells (ORL8 cells) [%]	cell count over the control cells (ORL11 cells; [8]) [%]	cell count over the control cells (OR6 cells) [%]	further results
CCC(C)(C)C(=O)O[C@H]1C[C@@H](C)C=C2C=C[C@H](C)[C@H](CC[C@@H]3C[C@@H](O)CC(=O)O3)[C@H]21 [SMV, Simvastatin]	0.15	0.28	1.42	–	–	–	–
CCCCCCC(=O)CCCCCC/C=C/C[C@@H](O)[C@H](O)[C@@](N)(CO)C(=O)O [Myriocin]	0.00362	0.00516	–	83.5	≥ 91	≥ 91	luciferase activity (relative to no drug) ([3]; OR6 cells, at 5 nM to 40 nM, after 72 hours, EC50 not calculable): below 60%; EC50 ([4]; Con1 strain, analyzed 72 hours after the addition of the drug): 0.0058 µM
CC(C)n1c(/C=C/C(O)CC(O)CC(=O)O)c(-c2ccc(F)cc2)c2ccccc21 (stereo not drawn) [FLV, Fluvastatin]	0.32	0.28	1.22	≥ 97	≥ 97	≥ 97	EC50 ([1]; FLV from a different manufacturer (LKT laboratories Inc., F4482), read-out: EC50): 0.14 µM; EC50 ([1]; Hepatitis C virus, FLV from a different manufacturer (LKT laboratories Inc., F4482), read-out: EC50): 0.11 µM; luciferase activity after treatment (single agent or combined use) [1]: 51%; EC50 ([2]; ORL8 cells, FLV from a different manufacturer (LKT laboratories Inc., F4482), read-out: EC50): 0.31 µM; luciferase activity after treatment (single agent or combined use) ([2]; ORL8 cells): 59%; EC50 ([3]; Hepatitis C virus, OR6 cells, FLV from a different manufacturer (LKT laboratories Inc., F4482), read-out: EC50): 1.44 µM; luciferase activity after treatment (single agent or combined use) ([3]; OR6 cells): 55%
O=C(O)C[C@H](O)C[C@H](O)/C=C/c1c(C2CC2)nc2ccccc2c1-c1ccc(F)cc1 [PTV, Pitavastatin]	0.16	0.45	0.46	≥ 80	≥ 80	≥ 80	luciferase activity after treatment (single agent or combined use) [1]: 49%; luciferase activity after treatment (single agent or combined use) ([2]; ORL8 cells): 43%; luciferase activity after treatment (single agent or combined use) ([3]; OR6 cells): 56%
COC1=C2C[C@@H](C)C[C@H](OC)[C@H](O)[C@@H](C)/C=C(\C)[C@H](OC(N)=O)[C@@H](OC)/C=C\C=C(/C)C(=O)NC(=CC1=O)C2=O [Geldanamycin]	0.00331	0.00257	0.0021	–	–	–	–
CC[C@H](C)C(=O)O[C@H]1C[C@@H](C)C=C2C=C[C@H](C)[C@H](CC[C@@H]3C[C@@H](O)CC(=O)O3)[C@H]21 [LOV, Lovastatin]	1.04	1.49	3	–	–	–	–
NC(=O)c1ncn([C@@H]2O[C@H](CO)[C@@H](O)[C@H]2O)c1O [Mizoribine]	76.5	58.8	–	–	–	–	luciferase activity (value relative to no drug) ([3]; OR6 cells, at 200 μM, after 72 hours): above 50%
CC(=O)Oc1ccccc1C(=O)O [ASA, Acetylsalicylic Acid]	–	–	–	53	72	51	EC50 ([1]; Hepatitis C virus, 72 h, luciferase activity after 72 hours): 1170 µM; EC50 ([2]; ORL8, 72 h): 1330 µM; EC50 ([3]; Hepatitis C virus, OR6, 72 h): 2160 µM; EC50 ([4]; HCV replicons of Con1 strain (Trujillo-Murillo et al.)): 4000 µM
B1	–	–	–	≥ 90	–	≥ 90	EC50 (50% effective drug concentration) ([1]; luciferase activity after 72 hours): 0.13 IU/ml; EC50 (50% effective drug concentration) ([2]; ORL8 cells, luciferase activity after 72 hours): 0.077 IU/ml; EC50 ([3]; OR6 cells, luciferase activity after 72 hours): 0.21 IU/ml; cell count over the control cells (ORL11 cells): ≥ 90%
